This is an account of results in article PMC7568570, “Resensitizing carbapenem- and colistin-resistant bacteria to antibiotics using auranofin” (Nature Communications, 2020).

This assay addresses T1, MCR-1 (Escherichia coli, UniProt A0A0R6L508).
T1 construct: gene mcr1; MCR-1-S, soluble periplasmic domain, residues 201-541 (200-541aa in Methods)
Briefly: equilibrium dialysis with ICP-MS (Kd); crystal structure by soaking at […] Å; TLC cleavage inhibition of full-length MCR-1. In kind it is binding. (In equilibrium dialysis only unbound substance equilibrates across the membrane.)

As a reminder, the Kd is the equilibrium constant for the complex coming apart. A low value points to higher affinity.

T1 sequence (A0A0R6L508 201-541): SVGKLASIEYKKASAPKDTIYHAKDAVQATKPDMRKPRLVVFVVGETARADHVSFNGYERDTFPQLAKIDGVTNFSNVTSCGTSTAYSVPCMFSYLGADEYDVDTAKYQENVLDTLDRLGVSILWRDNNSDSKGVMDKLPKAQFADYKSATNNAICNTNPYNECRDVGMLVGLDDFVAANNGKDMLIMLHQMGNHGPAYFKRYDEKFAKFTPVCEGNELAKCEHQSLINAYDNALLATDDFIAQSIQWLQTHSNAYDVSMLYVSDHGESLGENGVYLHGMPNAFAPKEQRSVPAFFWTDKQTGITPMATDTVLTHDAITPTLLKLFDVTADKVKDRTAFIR

Take `CC[P+](CC)(CC)[Au-][Cl]` [Au(PEt3)Cl, chloro(triethylphosphine)gold(I)]: the Kd worked out at 3.36 ± 0.38 µM.
